Experimental data taken from patent US12162861B2, “Dopamine D3 receptor selective antagonists/partial agonists; method of making; and use thereof” (THE UNITED STATES OF AMERICA, AS REPRESENTED BY THE …, priority 2016, dated 2024).
“Also recorded” adds a separate entry of the source.

How the values were obtained:
opiate delta receptor = opiate delta receptor (Homo sapiens, UniProt P41143); experiment: Binding to opiate delta receptor
cannabinoid CB2 receptor = cannabinoid CB2 receptor (Homo sapiens, UniProt P34972); experiment: Binding to cannabinoid CB2 receptor
rats = experiment: Thermal response (hot plate) in rats; format: in vivo, rat; settings: hot plate 52 °C, FIG. 13
Protocol: Methods: Compound (±)-29 was administered 15 minutes before saline or oxycodone challenge. Tests were performed after the rat was placed inside a transparent circular cage on a hot plate (52±0.2° C.). Licking the hind paw or jumping was considered as a sign of thermal nociception. The rat was then immediately removed from the hot plate and the time latency was recorded.

squirrel monkeys [1] = experiment: Cue-induced reinstatement of drug seeking in squirrel monkeys; format: in vivo, squirrel monkey (Saimiri sciureus)
Excerpt: Cue-induced reinstatement: After the completion of priming-induced reinstatement testing, the monkeys were returned to baseline THC self-administration for 5-10 sessions. In subsequent extinction sessions, drug injections and all cues associated with drug injections were removed. This means that catheters were not connected to a pump and monkeys were not receiving infusions or visual cue presentations. After two or three days of extinction, we tested for cue-induced reinstatement of extinguished drug-seeking behavior after vehicle pretreatment (i.m.) by allowing delivery of a saline injection paired with the drug-associated cues. […] Each reinstatement test was a single session, which was preceded and followed by extinction session(s) with vehicle pretreatment (i.m.) 30 min before the sessions.
Δ^9-tetrahydrocannabinol (THC, NIDA Drug Supply Program, Bethesda, MD, USA) was dissolved in a vehicle containing 1% Tween 80, 1% ethanol, and saline to obtain stock solution (0.4 mg/ml) and further diluted with saline. In the reinstatement tests, THC was injected i.v. (1 ml/kg) immediately before the session.

opiate mu receptor = opiate mu receptor (Homo sapiens, UniProt P35372); experiment: Binding to opiate mu receptor
[2] = Phase I metabolic stability in rat liver microsomes; format: in vitro ADME; settings: FIG. 2; 10 μM, 0.5 mg/mL microsomes
Protocol: (§1) Methods: Phase I metabolic stability assay was conducted in rat and rhesus monkey liver microsomes. For phase I metabolism, the reaction was carried out with 100 mM potassium phosphate buffer, pH 7.4, in the presence of NADPH regenerating system (1.3 mM NADPH, 3.3 mM glucose 6-phosphate, 3.3 mM MgCl2, 0.4 U/mL glucose-6-phosphate dehydrogenase, 50 μM sodium citrate). Reactions in triplicate were initiated by addition of the liver microsomes to the incubation mixture (compound final concentration was 10 μM; 0.5 mg/mL microsomes). Negative controls in the absence of cofactors were carried out to determine the specific cofactor-free degradation. Compound disappearance was monitored via LC/MS/MS. Chromatographic analysis was performed using an Accela™ ultra high-performance system consisting of an analytical pump, and an autosampler coupled with TSQ Vantage mass spectrometer (Thermo Fisher Scientific Inc., Waltham MA). […] The mobile phase used was composed of 0.1% Formic Acid in Acetonitrile and 0.1% Formic Acid in H2O with gradient elution, starting with 10% (organic) linearly increasing to 99% up to 2 min, maintaining at 99% (2-2.5 min) and re-equilibrating to 10% by 2.7 min. The total run time for each analyte was 5.0 min.

[3] = Phase I metabolic stability in monkey liver microsomes; format: in vitro ADME, rhesus monkey; settings: FIG. 1; 10 μM, 0.5 mg/mL microsomes
Protocol: as §1

C57BL/6J mice = settings: listed as (±)-29
Protocol: Twenty-four male mice (22-25 g) with a C57BL/6J genetic background were purchased from the Charles River Laboratories (Raleigh, NC).
Locomotor activity tests were conducted in open-field chambers (43×43×30 cm^3) (Accuscan Instruments, Inc., Columbus, OH, USA). […] On habituation days, the animals were moved to the test room, acclimated there for 10 min, and then placed in their assigned locomotor chambers. […] Then 15 min later, the animals were placed into the test chambers. Their locomotor activities were recorded every 20 min for 2 h using VersaMax version 3.0 software (Accuscan Instruments, Inc.). […] The locomotor activities were recorded for 2 h/day after each oxycodone injection. The locomotor behavioral data are expressed as means (±SEM). […] Posthoc Fisher's least significant difference was used for multiple comparisons. p<0.05 was considered statistically significant.

[4] = Mouse microsomal stability assay; format: in vitro ADME; settings: mouse liver microsomes, Phase I, 10 μM compound, 0.5 mg/mL microsomes
Protocol: Mouse Microsomal Stability Assay. […] The reaction was carried out with 100 mM potassium phosphate buffer, pH 7.4, in the presence of NADPH regenerating system, (compound final concentration was 10 μM; 0.5 mg/mL microsomes). Positive controls for phase I metabolism (testosterone) were also evaluated. Compound disappearance was monitored over time using a liquid chromatography and tandem mass spectrometry (LC/MS/MS) method. All reactions were sampled in triplicate. Chromatographic analysis was performed using an Accela ultra high-performance system consisting of an analytical pump and an autosampler coupled with a TSQ Vantage mass spectrometer (Thermo Fisher Scientific Inc., Waltham, MA). […] The mobile phase used was composed of 0.1% formic acid in acetonitrile and 0.1% formic acid in H2O with gradient elution, starting with 10% (organic) linearly increasing to 99% up to 2 min, maintaining at 99% (2-2.5 min) and reequilibrating to 10% by 2.7 min. The total run time for each analyte was 4.5 min.

squirrel monkeys [5] = experiment: Food self-administration in squirrel monkeys; format: in vivo, squirrel monkey (Saimiri sciureus); settings: squirrel monkeys, 1, 3, and 10 mg/kg i.m., FIG. 8
Excerpt: Subjects: Seven adult male squirrel monkeys (Saimiri sciureus) weighing 0.8 to 1.1 kg were housed in individual cages in a temperature- and humidity-controlled room with unrestricted access to water. […] The monkeys were trained to self-administer either THC or food pellets prior to the study. Monkeys were fed (approximately two hours after the session) a daily food ration consisting of biscuits of high protein monkey diet (Lab Diet 5045, PMI Nutrition International, Richmond, Indiana). The number of biscuits (8-14) was determined for each monkey individually to maintain their body weights at a constant level throughout the study. Monkeys self-administering food pellets had the number of biscuits adjusted to maintain the motivation to perform a food-reinforced task. Fresh fruits, vegetables and environmental enrichment were provided daily. […]
Data analysis: The number of reinforcements (injections or pellets) per session represents total number of injections delivered during each 1-hour session. The rates of responding are expressed as responses per second averaged over the 1 h session, with time and responding during time-outs not included in calculations. Data are expressed as mean response rates and numbers of reinforcements per session ±SEM. […]

Sequence of opiate delta receptor (P41143 whole entry): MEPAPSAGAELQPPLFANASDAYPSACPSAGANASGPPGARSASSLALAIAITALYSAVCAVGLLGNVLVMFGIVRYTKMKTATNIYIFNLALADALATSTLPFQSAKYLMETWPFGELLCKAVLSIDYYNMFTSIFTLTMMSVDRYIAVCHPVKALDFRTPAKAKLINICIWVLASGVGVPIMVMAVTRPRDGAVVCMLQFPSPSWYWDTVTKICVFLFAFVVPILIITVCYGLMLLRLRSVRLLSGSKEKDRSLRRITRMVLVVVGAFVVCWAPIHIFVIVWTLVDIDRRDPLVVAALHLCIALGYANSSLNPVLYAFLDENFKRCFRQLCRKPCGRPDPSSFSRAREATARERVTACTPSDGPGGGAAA
Sequence of cannabinoid CB2 receptor (P34972 whole entry): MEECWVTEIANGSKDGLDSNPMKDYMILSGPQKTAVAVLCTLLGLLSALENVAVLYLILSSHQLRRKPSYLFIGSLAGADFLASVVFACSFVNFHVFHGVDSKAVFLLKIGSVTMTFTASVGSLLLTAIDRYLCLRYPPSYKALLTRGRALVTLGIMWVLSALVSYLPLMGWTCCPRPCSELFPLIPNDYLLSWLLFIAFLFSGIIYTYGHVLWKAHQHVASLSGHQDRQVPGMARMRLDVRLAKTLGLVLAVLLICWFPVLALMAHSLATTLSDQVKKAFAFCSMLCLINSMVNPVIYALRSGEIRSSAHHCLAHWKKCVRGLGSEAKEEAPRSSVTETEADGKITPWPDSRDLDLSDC
Sequence of opiate mu receptor (P35372 whole entry): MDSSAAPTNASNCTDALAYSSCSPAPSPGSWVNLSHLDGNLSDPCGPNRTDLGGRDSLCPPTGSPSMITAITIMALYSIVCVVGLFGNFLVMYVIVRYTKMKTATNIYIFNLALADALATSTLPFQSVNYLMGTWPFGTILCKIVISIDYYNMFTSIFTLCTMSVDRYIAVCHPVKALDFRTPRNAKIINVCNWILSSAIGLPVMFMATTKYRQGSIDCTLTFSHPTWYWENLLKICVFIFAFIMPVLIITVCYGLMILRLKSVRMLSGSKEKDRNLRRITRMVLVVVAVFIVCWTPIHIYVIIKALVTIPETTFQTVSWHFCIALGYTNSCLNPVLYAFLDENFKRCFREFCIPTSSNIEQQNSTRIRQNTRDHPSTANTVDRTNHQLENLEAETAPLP

CCc1cc(Cl)c(OC)c(N2CCN(CC(O)CCNC(=O)c3cc4ccccc4[nH]3)CC2)c1 (racemic) [Compound 29, N-(4-(4-(3-chloro-5-ethyl-2-methoxyphenyl)piperazin-1-yl)-3-hydroxybutyl)-1H-indole-2-carboxamide]
binding to opiate delta receptor (opiate delta receptor): does not bind | binding to cannabinoid CB2 receptor (cannabinoid CB2 receptor): does not bind | thermal response after oxycodone challenge (oxycodone induced analgesia) (rats; 30 minutes following oxycodone 2 mg/kg i.p.): no significant effects on animal's thermal response; also recorded: no effect on oxycodone induced analgesia | thermal response after saline challenge (analgesic effect of its own) (rats; 30 minutes following saline 1 ml/kg i.p.): no significant effects on animal's thermal response; also recorded: no analgesic effects of its own | cue-induced reinstatement of drug seeking behavior (squirrel monkeys [1]): attenuated cue-induced reinstatement of drug seeking behavior | binding to opiate mu receptor (opiate mu receptor): does not bind | metabolic stability in rat liver microsomes versus PG648 [2]: improved metabolic stability as compared to Compound 1; also recorded: significantly more stable than PG648 | metabolic stability in monkey liver microsomes versus PG648 [3]: improved metabolic stability as compared to Compound 1; also recorded: surprisingly high metabolic stability | acute oxycodone-induced hyperactivity (C57BL/6J mice; mice, 5, 15 mg/kg ip 15 min before oxycodone 4 mg/kg, day 2): dose-dependently inhibited oxycodone-induced hyperactivity | oxycodone prime-induced locomotor sensitization after 2 days of withdrawal (C57BL/6J mice; mice, day 9, oxycodone 4 mg/kg challenge without pretreatment): long-lasting inhibition in oxycodone-induced increases in locomotion | % remaining over 1 h [4]: > 80% | food self-administration (squirrel monkeys [5]): has no effect on food self-administration; also recorded: without affecting food self-administration | food self-administration (squirrel monkeys [5]; listed as (±)-29): no effect on food self-administration
